# Assay results: ChEMBL document CHEMBL1132824, “Highly specific inhibitory effect of three-component hybrid liposomes including sugar surfactants on the growth of glioma cells” (Bioorg Med Chem Lett, 2000)
# What was measured:
# [1] = test system: U-251; experiment: Compound along with Tween 20 and SucCn was evaluated for inhibitory effect on growth of glioma (U251) cells; Effective; type: functional, cell-based; settings: Homo sapiens
# [2] = test system: U-251; experiment: Compound alone was evaluated for inhibitory effect on growth of glioma (U251) cells; Ineffective; type: functional, cell-based; settings: Homo sapiens
SMILES,Activity [1],Activity [2]
"CCCCCCCCCC(=O)OC[C@@H]1OC(O[C@]2(CO)OC(CO)C(O)[C@@H]2O)[C@@H](O)[C@H](O)[C@H]1O (single isomer, unassigned)",Effective,Ineffective
CCCCCCCCCCCCCC(=O)OCC(COP(=O)([O-])OCC[N+](C)(C)C)OC(=O)CCCCCCCCCCCCC (stereo unspecified),Effective,Ineffective
CCCCCCCCCCCC(=O)OC[C@@H]1O[C@H](O[C@]2(CO)O[C@H](CO)[C@@H](O)[C@@H]2O)[C@@H](O)[C@@H](O)[C@@H]1O,Effective,Ineffective
